How the values were obtained:
Assay type in all cases: in vivo, Male Wistar rats
[1] = tested on: ketone body production; experiment: Selection of amino acid promoting ketone body production: blood β-hydroxybutyric acid after amino acid plus MCT feeding; conditions: rats, until 6 hours; for % ΔAUC (%): % relative value of area under the blood concentration-curve ΔAUC of β-hydroxybutyric acid, control group = 100 / % ΔCmax (%): % relative value of maximum blood concentration ΔCmax of β-hydroxybutyric acid, control group = 100: overnight fasting, amino acid 1.0 mmol/kg oral, then caprylic triglyceride (MCT) 3.0 g/kg oral, control water + MCT; for both % ΔCmax and % ΔAUC of β-hydroxybutyric acid compared with control group fed with water: amino acid 1.0 mmol/kg oral + MCT 3.0 g/kg oral
Description: (§1) In the following Examples, the blood β-hydroxybutyric acid concentration was measured with a β-hydroxybutyric acid measuring instrument for self-inspection (Precision Xceed manufactured by Abbott).
In the following Examples, the promotion of ketone body production was evaluated as follows. Specifically, blood was collected from the caudal vein of rats under fasting to measure the blood concentration (mmol/L) of β-hydroxybutyric acid (bHB) as an index of the ketone body in the blood. The measured value was defined as an initial value (0 hours). The rats were grouped into a control group and an experimental group, and fed with test samples. Thereafter, the transition of the blood bHB concentration until after 6 hours from the initial value was graphed. A reference view for determining the maximum blood concentration (Cmax) and area under the blood concentration-curve (AUC) of bHB is shown in FIG. 1A. A value obtained by subtracting the measured value at the initial value (0 hours) from the measured value at the time of each measurement was calculated, and defined as an amount of change in blood β-hydroxybutyric acid concentration (ΔbHB concentration) (FIG. 1B). Then, for the amount of change in blood β-hydroxybutyric acid concentration (ΔbHB concentration), the maximum blood concentration (ΔCmax) and area under the blood concentration-curve (ΔAUC) until after 6 hours from the initial value (0 hours) were calculated (FIG. 1B).
A % relative value (% ΔCmax (%)) of the maximum blood concentration ΔCmax of β-hydroxybutyric acid for the experimental group when the maximum blood concentration ΔCmax of β-hydroxybutyric acid for the control group was assumed to be 100 was determined according to the following calculation formula.
A % relative value (% ΔAUC (%)) of the area under the blood concentration-curve ΔAUC of blood β-hydroxybutyric acid for the experimental group when the area under the blood concentration-curve ΔAUC of blood β-hydroxybutyric acid for the control group was assumed to be 100 was determined according to the following calculation formula.
Male Wistar rats (obtained from Japan SLC, Inc.) were acclimated for one week and then used for testing. Blood was collected from the caudal vein of the rats under overnight fasting to measure the blood concentration (mmol/L) of β-hydroxybutyric acid (bHB) as an index of the ketone body in the blood. The rats were grouped (n=8 for each group) so that the averages of the body weights and the β-hydroxybutyric acid concentrations for the respective groups were as equal as possible. Then, water was orally fed in an amount of 10 mL/kg of the body weight to the control group, and aqueous solutions of various amino acids (manufactured by Wako Pure Chemical Industries, Ltd.) were orally fed in an amount of 1.0 mmol/kg of the body weight to the experimental group. Immediately after feeding of water or each of the aqueous amino acid solutions, caprylic triglyceride (manufactured by Tokyo Chemical Industry Co., Ltd.), which is medium-chain fatty acid oil and fat (MCT), was orally fed in an amount of 3.0 g/kg of the body weight to the groups. Blood was collected from the caudal vein 1, 2, 3, 4, 5, and 6 hours after feeding of MCT to measure the blood β-hydroxybutyric acid concentration.

[2] = tested on: ketone body production; experiment: Effect of citrulline or leucine on ketone body production in feeding of medium-chain fatty acid oil and fat; conditions: rats, four-hour fasting; amino acid 1.5 mmol/kg oral + caprylic triglyceride (MCT) 4.5 g/kg oral; until 6 hours
Description: as §1
(§2) In the following Examples, the promotion of ketone body production was evaluated as follows. Specifically, blood was collected from the caudal vein of rats under fasting to measure the blood concentration (mmol/L) of β-hydroxybutyric acid (bHB) as an index of the ketone body in the blood. The measured value was defined as an initial value (0 hours). The rats were grouped into a control group and an experimental group, and fed with test samples. Thereafter, the transition of the blood bHB concentration until after 6 hours from the initial value was graphed. […] A value obtained by subtracting the measured value at the initial value (0 hours) from the measured value at the time of each measurement was calculated, and defined as an amount of change in blood β-hydroxybutyric acid concentration (ΔbHB concentration) (FIG. 1B). Then, for the amount of change in blood β-hydroxybutyric acid concentration (ΔbHB concentration), the maximum blood concentration (ΔCmax) and area under the blood concentration-curve (ΔAUC) until after 6 hours from the initial value (0 hours) were calculated (FIG. 1B). […]

[3] = tested on: ketone body production; experiment: Effect of citrulline amount on ketone body production in feeding of medium-chain fatty acid oil and fat; conditions: rats, four-hour fasting; citrulline 1.5, 2.25 or 3.0 mmol/kg + MCT 4.5 g/kg oral constant; until 6 hours
Description: as §1, §2

Row | Structure (SMILES) | % ΔAUC (%): % relative value of area under the blood concentration-curve ΔAUC of β-hydroxybutyric acid, control group = 100 [1] | % ΔCmax (%): % relative value of maximum blood concentration ΔCmax of β-hydroxybutyric acid, control group = 100 [1] | both % ΔCmax and % ΔAUC of β-hydroxybutyric acid compared with control group fed with water [1] | ketone body production compared with MCT fed alone (ΔbHB, ΔAUC, ΔCmax, FIGS. 2 to 7) [2] | amount of ketone bodies produced as a function of citrulline intake amount (% ΔAUC, % ΔCmax, FIGS. 8 and 9) [3]
1 | N[C@@H](CC(=O)O)C(=O)O [Aspartic acids (Asp), aspartic acid] | 107.5 ± 30.7% | 108.8 ± 23.6% | higher than those for the control group | – | –
2 | NC(=O)NCCC[C@H](N)C(=O)O [Citrulline (Cit), citrulline] | 105.4 ± 37.2% | 112.8 ± 25.5% | higher than those for the control group | the ketone body production was promoted | the amount of the ketone bodies produced varied according to the intake amount of citrulline (Cit)
3 | N[C@@H](CS)C(=O)O [Cysteine (Cys), cysteine] | 128.3 ± 22.2% | 151.9 ± 23.8% | higher than those for the control group | – | –
4 | NC(=O)CC[C@H](N)C(=O)O [Glutamine (Gln), glutamine] | 103.6 ± 30.7% | 121.2 ± 44.6% | higher than those for the control group | – | –
5 | CC(C)C[C@H](N)C(=O)O [Leucine (Leu), leucine] | 110.5 ± 21.1% | 130.1 ± 31.8% | higher than those for the control group | the ketone body production was promoted | –
6 | NCCS(=O)(=O)O [Taurine (Tau), taurine] | 103.6 ± 23.0% | 137.8 ± 21.8% | higher than those for the control group | – | –

Reference: patent publication US12156857B2, “Composition for promoting ketone body production” (Meiji Co., Ltd., priority 2016, dated 2024)
